According to ChEMBL document CHEMBL4831481, “Semisynthesis, Antiplasmodial Activity, and Mechanism of Action Studies of Isocoumarin Derivatives” (J Nat Prod, 2021):
Active and inactive are the calls of the source. The calls are words filed in the database; no cut-off is given here.

Tests used:
Hemozoin = assay: Inhibition of beta-hematin formation in Plasmodium falciparum assessed as decrease in beta-hematin; set-up: scale not given: the % may be the effect or the level left
[1] = target: T1, DNA gyrase (Escherichia coli) (UniProt P0AES6+P0AES4); assay: Inhibition of Escherichia coli DNA gyrase at 50 uM by fluorescence based assay relative to control; type: protein-complex assay
Plasmodium falciparum [2] = assay: Antiplasmodial activity against Plasmodium falciparum HB3 infected in human erythrocytes assessed as reduction in parasite growth incubated for 48 hrs by PicoGreen DNA fluorescent dye; type: functional, organism-based; conditions: HB3, 48 h
Vero = assay: Cytotoxicity against African green monkey Vero cells assessed as reduction in cell viability by MTT assay; type: functional; conditions: Chlorocebus sabaeus
[3] = Selectivity index, ratio of CC50 for African green monkey Vero cells to IC50 for Plasmodium falciparum HB3 infected in human erythrocytes assessed as reduction in parasite growth; type: toxicity, cell-based; conditions: read-out: Ratio CC50/IC50
Trypanosoma cruzi [4] = assay: Antitrypanosomal activity against Trypanosoma cruzi amastigotes infected in African green monkey Vero cells incubated for 5 days by chlorophenol red-beta-D-galactoside based colorimetric analysis; type: functional, organism-based; conditions: 120 h
Leishmania donovani = assay: Antileishmanial activity against Leishmania donovani axenic amastigotes at 10 ug/mL assessed as growth inhibition relative to control; type: functional; conditions: read-out: GI
Trypanosoma cruzi [5] = assay: Antitrypanosomal activity against Trypanosoma cruzi amastigotes infected in African green monkey Vero cells incubated for 5 days at 10 ug/mL by chlorophenol red-beta-D-galactoside based colorimetric analysis relative to control; type: functional; conditions: 120 h, time 5 day, read-out: GI
MCF7 = assay: Growth inhibition of human MCF7 cells at 10 ug/mL relative to control; type: functional; conditions: read-out: GI
[6] = tested on: Plasmodium falciparum HB3; assay: Disruption of cell membrane integrity in schizont stage Plasmodium falciparum HB3 infected red blood cells incubated for 3 hrs at 10 uM and measured by propidium iodide incorporation assay relative to control; type: cell membranes
[7] = Disruption of cell membrane integrity in red blood cells incubated for 3 hrs at 10 uM and measured by propidium iodide incorporation assay relative to control; type: ADME, cell membranes
Erythrocyte = assay: Hemolytic activity against red blood cells assessed as hemolysis at 10 uM incubated for 24 hrs by spectrophotometric analysis relative to control; type: ADME, cell-based
Plasmodium falciparum [8] = assay: […] activity in schizont stage Plasmodium falciparum HB3 assessed as reduction in mitochondrial membrane potential at 10 uM incubated for 20 mins and measured after 3 hrs by DiOC6-staining based fluorometry analysis relative to control; type: functional, organism-based
Plasmodium falciparum [9] = assay: Induction of reactive oxygen species generation in schizont stage Plasmodium falciparum HB3 incubated for 3 hrs at 10 uM by CM-H2DCFDA dye based fluorescence assay relative to control; type: functional, organism-based
Plasmodium falciparum [10] = assay: Induction of apoptosis in schizont stage Plasmodium falciparum HB3 infected red blood cells assessed as caspase activity measured by FLICA reagent based fluorescence assay; type: functional, organism-based
[11] = target: T1, DNA gyrase (Escherichia coli); assay: Inhibition of Escherichia coli DNA gyrase at 10 uM by fluorescence based assay relative to control; type: protein-complex assay
[12] = target: T1, DNA gyrase (Escherichia coli); assay: Inhibition of Escherichia coli DNA gyrase at 100 uM by fluorescence based assay relative to control; type: protein-complex assay

SMILES | IC50 (Plasmodium falciparum [2]) [µM] | CC50 (Vero) [µM] | selectivity ratio [3] | IC50 (Trypanosoma cruzi [4]) [µM] | other results
CCN(CC)CCCC(C)Nc1ccnc2cc(Cl)ccc12 (configuration not stated) | – | – | – | – | Activity (Hemozoin): 68.2%; inhibition [1]: inactive
CCC[C@H]1C[C@H]2OC(=O)c3c(cc(OC)c(OC)c3OC(C)=O)[C@H]2O1 | 0.77 | 124 | 161 | – | –
CCC[C@H]1C[C@H]2OC(=O)c3c(cc(O)c(O)c3OCc3ccc(C(F)(F)F)cc3)[C@H]2O1 | – | – | – | 12.4 | –
CCC[C@H](O)C[C@H]1OC(=O)c2c(cc(OC)c(OC)c2O)[C@H]1OC | 0.38 | 258 | 675 | – | inhibition of growth at 10 µg/mL (Leishmania donovani): 0%; inhibition of growth at 10 µg/mL (Trypanosoma cruzi [5]): 0%; inhibition of growth at 10 µg/mL (MCF7): 0%; Activity [6]: inactive; Activity [7]: Non-Toxic; Activity (Erythrocyte): Non-Toxic; Activity (Plasmodium falciparum [8]): Active; Activity (Plasmodium falciparum [9]): inactive; Activity (Plasmodium falciparum [10]): inactive; Activity (Hemozoin): 51.1%; inhibition [11]: 48%
COC(=O)CC[C@H]1C[C@H]2OC(=O)c3c(cc(OC)c(OC)c3O)[C@H]2O1 | 2.58 | 106 | 41 | – | –
CCC[C@H]1C[C@H]2OC(=O)c3c(cc(OC)c(OC)c3O)[C@H]2O1 [MONOCERIN] | 1.13 | 87.5 | 77 | – | –
CCC[C@H]1C[C@H]2OC(=O)c3c(cc(O)c(O)c3OCc3cc(C(F)(F)F)cc(C(F)(F)F)c3)[C@H]2O1 | – | – | – | 11.9 | –
CC/C(=C(\c1ccccc1)c1ccc(OCCN(C)C)cc1)c1ccccc1 | – | – | – | – | inhibition [12]: Active
CCC[C@H]1C[C@H]2OC(=O)c3c(cc(O)c(O)c3OCc3cccc(C(F)(F)F)c3)[C@H]2O1 | – | – | – | 13.6 | –
COc1cc2c(c(O)c1OC)C(=O)O[C@@H]1C[C@H](C[C@H](C)O)O[C@H]21 | 11.7 | 262 | 22 | – | –
